A short description of this series: physchem.

The compound `Cc1nc2ccccc2n1CC(=O)c1ccc(Cl)c(S(N)(=O)=O)c1` yielded a pKa of 8.8. `NS(=O)(=O)c1cc(C(=O)CN2CCc3ccccc32)ccc1Cl` gave a pKa of 8.8. `NS(=O)(=O)c1cc(C(=O)Cn2cnc(-c3ccccc3)c2-c2ccccc2)ccc1Cl` came in with a pKa of 8.8. For `CCc1nc2ccccc2n1CC(=O)c1ccc(Cl)c(S(N)(=O)=O)c1` the value was 8.8; for `CC1Cc2ccccc2N1NC(=O)c1ccc(Cl)c(S(N)(=O)=O)c1` (centres undefined) [INDAPAMIDE], 8.8. For `NS(=O)(=O)c1cc(C(=O)Nn2cnc3ccccc32)c(Sc2ccccc2)cc1Cl` the value was 8.8. As to `NS(=O)(=O)c1cc(C(=O)Cn2ccnc2)ccc1Cl`, the pKa was 8.8.

`NS(=O)(=O)c1cc(C(=O)CN2CCCc3ccccc32)ccc1Cl` returned a pKa of 8.8. For `Cc1cc2ncn(CC(=O)c3ccc(Cl)c(S(N)(=O)=O)c3)c2cc1C` the value was 8.8. `NS(=O)(=O)c1cc(C(=O)Cn2ccnc2)c(Cl)cc1Cl` gave a pKa of 8.3. For `Cc1cc2ncn(CC(=O)c3cc(S(N)(=O)=O)c(Cl)cc3Cl)c2cc1C` the value was 8.3; for `NS(=O)(=O)c1cc(C(=O)Cn2ccnc2-c2ccccc2)ccc1Cl`, 8.8. Turning to `NS(=O)(=O)c1cc(C(=O)Cn2cnc3ccccc32)c(Cl)cc1Cl`, the pKa was determined as 8.3. In the case of `Cc1cc2ncn(CC(=O)c3cc(S(N)(=O)=O)c(Cl)cc3Sc3ccccc3)c2cc1C`, the pKa was determined as 8.8.

Consider `NS(=O)(=O)c1cc(C(=O)Cn2cnc3ccccc32)ccc1Cl`, for which the pKa stood at 8.8. The compound `NS(=O)(=O)c1cc(C(=O)Nn2cnc3ccccc32)c(SC2CCCCC2)cc1Cl` came in with a pKa of 8.8.

In the case of `NS(=O)(=O)c1cc(C(=O)Nn2cnc3ccccc32)c(Cl)cc1Cl`, the pKa stood at 8.3. For `CCc1nccn1CC(=O)c1ccc(Cl)c(S(N)(=O)=O)c1` the value was 8.8; for `NS(=O)(=O)c1cc(C(=O)Cn2cnc3ccccc32)c(SCCc2ccccc2)cc1Cl`, 8.8.

One may read the pKa as the pH at which an ionisable group is half protonated.

The record behind these values is ChEMBL document CHEMBL4184200, “Benzimidazole design, synthesis, and docking to build selective carbonic anhydrase VA inhibitors” (Bioorg Med Chem, 2018).
